Converted amounts (≈) assume the structure as drawn.
Assays:
aqueous solubility = format: physicochemical; details: for solubility: water, read-out: Aq. solubility
[1] = biological target: T1, Human fibroblast collagenase (Homo sapiens, UniProt P03956); assay: biochemical
T1 sequence (P03956 100-469): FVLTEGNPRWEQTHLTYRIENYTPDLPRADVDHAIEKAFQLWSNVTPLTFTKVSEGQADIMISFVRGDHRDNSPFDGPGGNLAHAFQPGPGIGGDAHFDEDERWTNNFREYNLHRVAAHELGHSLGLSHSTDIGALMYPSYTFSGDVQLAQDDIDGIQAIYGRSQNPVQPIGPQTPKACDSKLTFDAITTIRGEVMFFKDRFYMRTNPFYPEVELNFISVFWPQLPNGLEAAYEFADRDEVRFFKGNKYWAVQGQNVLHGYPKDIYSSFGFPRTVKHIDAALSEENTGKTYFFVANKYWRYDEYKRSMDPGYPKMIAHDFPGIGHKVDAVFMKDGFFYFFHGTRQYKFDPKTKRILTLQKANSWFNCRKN

Getatinase A = biological target: T2, Getatinase A (Homo sapiens, UniProt P08253); assay: biochemical
T2 sequence (P08253 110-660): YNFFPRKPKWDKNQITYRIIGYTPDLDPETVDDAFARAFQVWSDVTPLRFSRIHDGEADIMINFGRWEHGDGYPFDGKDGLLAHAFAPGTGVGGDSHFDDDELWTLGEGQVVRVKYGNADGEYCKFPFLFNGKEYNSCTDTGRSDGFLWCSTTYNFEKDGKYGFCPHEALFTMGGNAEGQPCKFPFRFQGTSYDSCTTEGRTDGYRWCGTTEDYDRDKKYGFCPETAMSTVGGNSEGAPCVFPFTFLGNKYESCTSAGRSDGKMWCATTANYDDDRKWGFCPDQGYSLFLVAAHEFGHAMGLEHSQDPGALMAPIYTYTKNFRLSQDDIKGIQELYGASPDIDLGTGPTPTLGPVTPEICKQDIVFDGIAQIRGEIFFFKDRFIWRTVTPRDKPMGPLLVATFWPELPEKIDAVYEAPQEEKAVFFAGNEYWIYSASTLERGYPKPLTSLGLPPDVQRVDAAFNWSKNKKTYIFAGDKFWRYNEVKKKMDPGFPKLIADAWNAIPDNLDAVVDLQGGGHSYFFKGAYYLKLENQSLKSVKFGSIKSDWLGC

Stromelysin-1 = Stromelysin-1 (Homo sapiens, UniProt P08254); assay: biochemical
Sequence of Stromelysin-1 (P08254 100-477, species assumed): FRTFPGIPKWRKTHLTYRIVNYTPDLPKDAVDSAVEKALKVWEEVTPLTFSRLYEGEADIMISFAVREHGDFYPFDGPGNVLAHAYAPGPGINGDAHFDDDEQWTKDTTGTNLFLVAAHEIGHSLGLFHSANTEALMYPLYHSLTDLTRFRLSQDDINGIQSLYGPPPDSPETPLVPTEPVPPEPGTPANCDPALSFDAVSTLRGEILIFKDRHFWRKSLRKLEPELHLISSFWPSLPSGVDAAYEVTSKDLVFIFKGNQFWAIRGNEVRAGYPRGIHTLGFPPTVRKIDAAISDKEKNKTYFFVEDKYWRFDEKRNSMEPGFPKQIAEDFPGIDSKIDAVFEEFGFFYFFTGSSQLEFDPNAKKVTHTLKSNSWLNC

[2] = effective blood concentrations after oral administration; format: in vivo; details: no data given

SMILES	solubility (aqueous solubility) [µg/mL]	IC50 [1] [nM]	IC50 (Getatinase A) [nM]	IC50 (Stromelysin-1) [nM]	effective blood concentrations (in words) [2]	aqueous solubility (in words) (aqueous solubility; presently preferred compound)
CNC(=O)[C@@H](NC(=O)[C@H](CC(C)C)[C@H](O)C(=O)NO)C(C)(C)C [Comparator 1, N^4-(2,2-Dimethyl-1S-methylcarbamoyl-propyl)-2S, N^1-dihydroxy-3R -isobutyl-succinamide, reference compound]	7700 (≈ 23200 µM)					
C=CC[C@H](C(=O)NO)[C@@H](CC(C)C)C(=O)N[C@H](C(=O)NC)C(C)(C)C [Comparator 2, 2S-Allyl-N^4-(2,2-Dimethyl-1S-methylcarbamoyl-propyl)-N^4-hydroxy-3R-isobutyl-succinamide, reference compound]	40 (≈ 113 µM)	4	15			
CNC(=O)[C@@H](NC(=O)[C@H](CC(C)C)C(CSc1cccs1)C(=O)NO)C(C)(C)C (stereo partly drawn) [Comparator 3, N^1-(2,2-Dimethyl-1S-methylcarbamoyl-propyl)-N^4-hydroxy-2R -isobutyl-3-(thiophen-2-yl-sulfanylmethyl)-succinamide, reference compound]	180 (≈ 406 µM)	1	20	40		
COCCOCOCCNC(=O)[C@@H](NC(=O)[C@H](CC(C)C)[C@H](O)C(=O)NO)C(C)(C)C [Example 1, 2S, N^1 -Dihydroxy-3R-isobutyl-N^4 -{1S-[2-(2-methoxy-ethoxymethoxy)-ethylcarbamoyl]-2,2-dimethyl-propyl}-succinamide]	≥ 29600	10	15	60		
C=CC[C@H](C(=O)NO)[C@@H](CC(C)C)C(=O)N[C@H](C(=O)NCCOCCOC)C(C)(C)C [Example 4, 2S-Allyl-N^1-hydroxy-3R-isobutyl-N^4 -{1S-[2-(2-methoxy-ethoxy)-ethylcarbamoyl]-2,2-dimethyl-propyl}-succinamid]	4700 (≈ 10600 µM)	1	7	40	high and prolonged effective blood concentrations	good aqueous solubility
C=CC[C@H](C(=O)NO)[C@@H](CC(C)C)C(=O)N[C@H](C(=O)NCC(C)(COC)COC)C(C)(C)C [Example 6, 2S-Allyl-N^4 -{1S-[2,2-di-(methoxymethyl)-propylcarbamoyl}-2,2-dimethyl-propyl]-N^1-hydroxy-3R-isobutyl-succinamide]	400 (≈ 848 µM)	20	30	50		
COCCOCCOCCNC(=O)[C@@H](NC(=O)[C@H](CC(C)C)[C@H](CSc1cccs1)C(=O)NO)C(C)(C)C [Example 9, N^4 -Hydroxy-2R-isobutyl-N^1-(1S{2-[2-(2-methoxy-ethoxy)-ethoxy]-ethylcarbamoyl}-2,2-dimethyl-propyl)-3S-(thiophen-2-yl-sulfanylmethyl)-succinamide]	400 (≈ 695 µM)	2	9	10		

— patent US5866717A, “Metalloproteinase inhibitors” (British Biotech Pharmaceuticals Limited, priority 1994, dated 1999)
